Entries after “also recorded” stand apart in the source; their conditions may differ. Where a name gives a salt, the structure may show the parent alone. Read-outs that look alike come from different tables or passages of the source.
Legend:
Vero cells [1] = assay: XTT cell proliferation assay in Vero cells; assay type: cell-based, African green monkey; details: non-infected Vero cells, 36 h post-treatment
ZIKV Paraiba/2015 [2] = assay: Viral inhibition assay, co-treatment, Vero cells; assay type: cell-based, Zika virus; details: for Co-treatment MIC (maximum effective concentration): Vero cells, ZIKV Paraiba/2015, co-treatment
ZIKV Paraiba/2015 [3] = assay: Viral inhibition assay, pre-treatment (prophylactic), Vero cells; assay type: cell-based, Zika virus; details: for EC50: ZIKV Paraiba/2015, Vero cells, pre-treatment 12 h before infection; for inhibitor category based on SI-MTT / inhibitor category based on SI-XTT: pre-treatment, Paraiba/2015, Vero
Vero cells [4] = assay: MTT cell viability assay in Vero cells; assay type: cell-based, African green monkey; details: non-infected Vero cells, 36 h post-treatment
ZIKV PRVABC59 strain = assay: Viral inhibition assay, post-treatment, new World strain, Vero cells; assay type: cell-based, Zika virus; details: for inhibitor category based on SI-MTT and SI-XTT: ZIKV PRVABC59, Vero; for EC50: new World ZIKV PRVABC59, Vero cells, post-treatment, 48 h
A549 cells [5] = assay: XTT cell proliferation in A549 cells; assay type: cell-based, human; details: highest concentration used 50.00 µM, sentence also cites [17]
ZIKV MR-766 strain = assay: Viral inhibition assay, post-treatment, old World strain, Vero cells; assay type: cell-based, Zika virus; details: for inhibitor category based on SI-MTT and SI-XTT: ZIKV MR-766, Vero; for EC50: old World ZIKV MR-766, Vero cells, post-treatment; for MIC: old World ZIKV MR-766 strain, read-out: MR766 MIC (maximum effective concentration)
ZIKV Paraiba/2015 [6] = assay: Viral inhibition assay, post-treatment, human A549 cells; assay type: cell-based, Zika virus; details: for inhibitor category based on SI-MTT and SI-XTT: Paraiba/2015, A549 cells; for EC50: ZIKV Paraiba/2015, A549 cells, post-treatment, 36 h
A549 cells [7] = assay: MTT cell viability in A549 cells; assay type: cell-based, human; details: highest concentration used 50.00 µM, sentence also cites [17]
ZIKV Paraiba/2015 [8] = assay: Viral inhibition assay, post-infection treatment, Vero cells; assay type: cell-based, Zika virus; details: for EC50: ZIKV Paraiba/2015, Vero cells, post-infection treatment, 36 h; for inhibitor category based on SI-MTT and SI-XTT: post-treatment, Paraiba/2015, Vero
ZIKV Paraiba/2015 [9] = assay: Growth kinetics inhibition assay (infectious viral progeny), Vero cells; assay type: cell-based, Zika virus
[10] = XTT cell proliferation assay in Vero cells; assay type: cell-based, African green monkey; details: African green monkey, confluent monolayers; non-infected Vero cells, 36 h post-treatment
[11] = MTT cell viability assay in Vero cells; assay type: cell-based, African green monkey; details: African green monkey, confluent monolayers; non-infected Vero cells, 36 h post-treatment
[12] = XTT cell proliferation in A549 cells; assay type: cell-based, human; details: human, highest concentration used 50.00 µM, sentence also cites [17]
ZIKV MR-766 [13] = details: ZIKV MR-766, Vero cells, pre-treatment conditions; cited from earlier work
[14] = MTT cell viability in A549 cells; assay type: cell-based, human; details: human, highest concentration used 50.00 µM, sentence also cites [17]
ZIKV MR-766 [15] = details: ZIKV MR-766, Vero cells; cited from earlier work
[16] = co-treatment, Paraiba/2015, Vero

Compound: 2′,3′,5′-Triacetyl-6-azauridine [Azaribine]
- CC50 (Vero cells [1]): > 1350 µM
- Co-treatment MIC (maximum effective concentration) (ZIKV Paraiba/2015 [2]): > 100.00 µM
- EC50 (ZIKV Paraiba/2015 [2]; ZIKV Paraiba/2015, Vero cells, co-treatment (virus pre-incubated with compound 1 h), read-out: EC50): 2.59 µM
- inhibitor category based on SI-MTT (ZIKV Paraiba/2015 [2]; [16]): Potent
- inhibitor category based on SI-MTT and SI-XTT (ZIKV Paraiba/2015 [2]; [16]): potent
- inhibitor category based on SI-XTT (ZIKV Paraiba/2015 [2]; [16]): potent
- Pre-treatment MIC (maximum effective concentration) (ZIKV Paraiba/2015 [3]; Vero cells, ZIKV Paraiba/2015, pre-treatment): > 100.00 µM
- EC50 (ZIKV Paraiba/2015 [3]): 47.3 µM
- inhibitor category based on SI-MTT (ZIKV Paraiba/2015 [3]): moderate
- inhibitor category based on SI-XTT (ZIKV Paraiba/2015 [3]): weakest and weak
- CC50 (Vero cells [4]): 237 µM
- inhibitor category based on SI-MTT and SI-XTT (ZIKV PRVABC59 strain): moderate
- PRVABC59 MIC (maximum effective concentration) (ZIKV PRVABC59 strain; new World ZIKV PRVABC59): < 11.10 µM
- EC50 (ZIKV PRVABC59 strain): 1.12 µM
- CC50 (A549 cells [5]): > 50 µM
- inhibitor category based on SI-MTT and SI-XTT (ZIKV MR-766 strain): weak
- EC50 (ZIKV MR-766 strain): 2.43 µM
- MIC (ZIKV MR-766 strain): < 11.10 µM
- A549 cells MIC (maximum effective concentration) (ZIKV Paraiba/2015 [6]; A549 cells): < 11.10 µM
- inhibitor category based on SI-MTT and SI-XTT (ZIKV Paraiba/2015 [6]): weak
- EC50 (ZIKV Paraiba/2015 [6]): 0.68 µM
- CC50 (A549 cells [7]): > 50 µM
- Post-treatment MIC (maximum effective concentration) (ZIKV Paraiba/2015 [8]; Vero cells, ZIKV Paraiba/2015, post-treatment): > 100.00 µM
- EC50 (ZIKV Paraiba/2015 [8]; read-out: EC50): 1.62 µM
- inhibitor category based on SI-MTT and SI-XTT (ZIKV Paraiba/2015 [8]): most potent; also recorded: potent
- effect on production of infectious viral progeny (viral titers) (ZIKV Paraiba/2015 [9]; 24 h post-treatment and at 10 EC50 at 48 and 72 h post-treatment): significant effect

Compound: Cc1c(-c2ccc(-c3ccccc3F)cc2)nc2ccc(F)cc2c1C(=O)O [Brequinar, Brequinar sodium salt hydrate]
- CC50 at 36 h [10]: > 1350 µM
- Co-treatment MIC (maximum effective concentration) (ZIKV Paraiba/2015 [2]): < 33.30 µM
- inhibitor category based on SI-MTT and SI-XTT (ZIKV Paraiba/2015 [2]; [16]): moderate
- MIC (ZIKV Paraiba/2015 [3]; Zika virus, read-out: Pre-treatment MIC (maximum effective concentration)): > 100 µM
- EC50 (ZIKV Paraiba/2015 [3]; Zika virus): 42.5 µM
- inhibitor category based on SI-MTT (ZIKV Paraiba/2015 [3]): moderate
- inhibitor category based on SI-XTT (ZIKV Paraiba/2015 [3]): weakest and weak
- CC50 at 36 h [11]: 238 µM
- inhibitor category based on SI-MTT and SI-XTT (ZIKV PRVABC59 strain): potent
- EC50 (ZIKV PRVABC59 strain; Zika virus): 0.08 µM
- MIC (ZIKV PRVABC59 strain; Zika virus, new World ZIKV PRVABC59, read-out: PRVABC59 MIC (maximum effective concentration)): < 0.41 µM
- CC50 [12]: > 50 µM
- inhibitor category based on SI-MTT and SI-XTT (ZIKV MR-766 strain): most potent; also recorded: potent
- EC50 (ZIKV MR-766 strain; Zika virus): 0.05 µM
- MIC (ZIKV MR-766 strain; Zika virus): < 0.13 µM
- inhibitor category based on SI-MTT and SI-XTT (ZIKV Paraiba/2015 [6]): Potent
- MIC (ZIKV Paraiba/2015 [6]; Zika virus, in Homo sapiens, read-out: A549 cells MIC (maximum effective concentration)): < 0.04 µM
- EC50 (ZIKV Paraiba/2015 [6]; Zika virus): 0.02 µM
- EC50 (ZIKV MR-766 [13]): 0.3 µM
- CC50 [14]: > 50 µM
- EC50 (ZIKV Paraiba/2015 [8]): 1.51 µM
- EC50 (ZIKV Paraiba/2015 [8]; Zika virus, Vero): 1.03 µM
- MIC (ZIKV Paraiba/2015 [8]; Zika virus, read-out: Post-treatment MIC (maximum effective concentration)): > 100 µM
- inhibitor category based on SI-MTT and SI-XTT (ZIKV Paraiba/2015 [8]): most potent; also recorded: potent
- effect on production of infectious viral progeny (viral titers) (ZIKV Paraiba/2015 [9]; 0.1, 1, 10 EC50, all time points (24, 48, 72 h post-treatment), MOI 0.1): dose-dependent inhibitory effect
- effect on production of infectious viral progeny (viral titers) (ZIKV Paraiba/2015 [9]; 10 EC50, 24 and 48 h post-treatment): Complete inhibition
- EC50 (ZIKV MR-766 [15]): 0.08 µM
